In patent US20240024216A1, “METHODS AND MATERIALS FOR TREATING HAIR LOSS” (The Penn State Research Foundation, priority 2021, published 2024):

Assays:
[1] = system: keratinocytes co-cultured with SCs (10:1); assay: Co-culture scratch assay, keratinocytes with Schwann cells; assay type: cell-based, human
Experimental: To determine the influence of Schwann cells and fibroblast on keratinocytes migration and proliferation wound healing scratch assay was conducted. The co-culture experiment performed in Keratinocytes to either Schwann cells or fibroblasts in a ratio of 10:1 with same proposition of their respective medium were seeded on 96-well ImageLock microplate for 6 hours and the wells were pre-coated with collagen-I plate. For the drug treatment cells were pretreated with 4-AP prior to coating for 16-18 hours. Next, the wound scratch was created and treated cells with and without 4-AP in medium. Imaged for every hour until 24 hour and analyzed for percent of closure as described above procedure.

[2] = system: human foreskin primary keratinocytes; assay: Scratch wound healing migration assay, primary keratinocytes; assay type: cell-based
Experimental: Keratinocytes isolation, culture conditions and characterization—The isolated epidermis was placed in a petri dish containing HEPES buffer for 10 minutes at room temperature, then treated with trypsin at 37° C. until the epidermis became loose and medium cloudy due to keratinocytes release. The cloudy medium was collected and trypsin activity neutralized using fetal bovine serum (FBS) in 1:1 ratio. The epidermis suspended keratinocytes were centrifuges at 1500 rpm for 5 minutes. The pellet resuspended in KGM-GOLD keratinocytes medium (Lonza KGM gold and supplements, Catlog No. 00192151 and 00192152). The isolated foreskin cultured on a culture dish and placed at 37° C. in 5% CO2 incubator for 1-2 days to allow keratinocytes to adhere. Adhere keratinocytes were continued incubation in KGM-Gold medium until cells reach about 80% confluent.
Keratinocytes/Schwann cells/fibroblasts (7×10^4 cells/well keratinocytes and 3.5×10^4 cells/well of SCs and FBs) with their respective medium were seeded on pre-coated either with collagen-I/PLL/no 96-well ImageLock microplate for 6 hours (Incucyte-sartorius plate, Cat log 4379). For the drug treatment cells were pretreated with 4-AP prior to coating for 16-18 hours. Next, the wound scratch was created using IncuCyte automated system (Essen BioScience). After scratches the cells washed with PBS and the respective cells medium was added with or without 1 mM of 4-AP. The plate was incubated in Incucyte automated imaging system, wound healing and cells migration was monitored by time-lapse photography capturing every hour from 0 to 42 hours. The relative area of wound size and cells migration at each time point was analyzed using IncuCyte™ Scratch Wound Cell Migration Software Module (Essen BioScience) and the percent of wound healing was calculated from the area measured after scratching relative to the basal area as expressed in pixels.
Indirect immunofluorescence was used to identify, characterize and to analyze the proliferation after 4-AP treatment. […]

[3] = system: human foreskin primary keratinocytes; assay: Keratinocyte scratch assay with 4-AP, NGF and NGF-antibody; assay type: cell-based; conditions: at 12 hours
Experimental: Keratinocytes (7×10^4 cells/well) with KC medium were seeded on collagen-I pre-coated 96-well ImageLock microplate for 6 hours. For the drug treatment cells were pretreated with 4-AP prior to coating for 16-18 hours. Next, the wound scratch was created using IncuCyte automated system. After scratches the cells washed with PBS and the respective cells medium was added with individual 1 mM of 4-AP and 200 ng/ml of NGF (MyBioSource, Inc., Catlog No. MBS7114974) in keratinocytes medium and combination of 1 mM of 4-AP & 200 ng/mL NGF with or without 10 μg/ml of NGF-antibody (ThermoFisher Scientific, Catlog No. MA5-32067). The plate was incubated in Incucyte automated imaging system, wound healing and cells migration imaged for every hour until 24 hour and analyzed for percent of closure as described above procedure.

[4] = system: human foreskin dermal primary Schwann cells; assay: Scratch wound healing migration assay, primary dermal Schwann cells; assay type: cell-based
Experimental: Dermal Schwann cells isolation culture conditions and characterization—The separated dermis was minced into small pieces and placed in a petri dish containing collagenase in DMEM basal medium at 37° C. for 2.5 hours. The dermis was completely dissociated and the medium was cloudy. The dissociated medium was collected in tube and centrifuged at 1500 rpm for 5 minutes. The pellet was resuspended in complete DMEM medium, added on poly-L-lysine coated dish and the dish was incubated at 37° C. in 5% CO2 incubator for overnight. Next day, adhered cells were treated with 10 μM cytosine arabinoside containing DMEM complete medium and incubated at 37° C. in 5% CO2 incubator for 24 hours. After, the cells were cultured in Schwann cells culture medium (ScienCell Research, Catlog No. 1701) until the cells reached about 95% confluence.
Keratinocytes/Schwann cells/fibroblasts (7×10^4 cells/well keratinocytes and 3.5×10^4 cells/well of SCs and FBs) with their respective medium were seeded on pre-coated either with collagen-I/PLL/no 96-well ImageLock microplate for 6 hours (Incucyte-sartorius plate, Cat log 4379). For the drug treatment cells were pretreated with 4-AP prior to coating for 16-18 hours. […] The plate was incubated in Incucyte automated imaging system, wound healing and cells migration was monitored by time-lapse photography capturing every hour from 0 to 42 hours. […]

Nc1ccncc1 [4-AP, 4-aminopyridine]
percentage of wound closure ([1]; at 15 hours, 80% in non-treated): 98%
time to scratch closure ([1]; with 4-AP, 20 hours without treatment): ≤ 15 h
time of complete scratch closure ([2]; 1 mM 4-AP, control closed at 32 hours): 18 h
SOX10 and NGF expression in keratinocytes ([2]; 4-AP treated vs no treatment): both increased
expression of keratins associated with keratinocyte differentiation (K10) ([2]; 4-AP treated vs no treatment): did not increase
scratch closure ([3]; 56% in control cultures, 1 mM 4-AP, 200 ng/ml NGF): 75%
scratch closure with NGF-neutralizing antibody ([3]; plus 10 μg/ml NGF-antibody): 67%
time to 80% scratch closure ([4]; 1 mM 4-AP, 23 hours without treatment): 11 h
SOX10 and NGF expression in SCs ([4]; compared to controls): increased
